Assay results as given in ChEMBL document CHEMBL3046384, “Pharmacophore modeling and structure-based virtual screening for a novel switch region target of bacterial RNA polymerase” (Med Chem Res, 2012).

assay: Inhibition of RNA polymerase of Bacteria

Row | SMILES | IC50
1 | CCC/C(C)=C/C=C(\C)C(=O)c1c(O)cc([C@H](C)CC/C=C/NC(=O)OC)oc1=O [MYXOPORIN A] | 1000 nM
2 | C/C=C/C/C=C(\C)C(O)CC/C(C)=C/C=C(\C)C(=O)c1c(O)cc([C@H](C)CC/C=C/NC(=O)OC)oc1=O (stereo partly drawn) [CORALLOPYRONIN A] | 4000 nM
3 | C/C(=C\Cc1ccccc1)CCC(=O)C[C@H]1C[C@H](O)C/C(C)=C/C/C=C/C/C(CC(=O)O)=C\C(=O)O1 [RIPOSTATIN] | 800 nM
